From ChEMBL document CHEMBL1133911, “Synthesis of OSW-1 analogues and a dimer and their antitumor activities” (Bioorg Med Chem Lett, 2001)

Tests used:
Assay type in all cases: functional
A549 [1] = assay: Percent growth inhibition of A-549 human lung adenocarcinoma at 10e-6 M compound concentration in standard MTT assay
A549 [2] = assay: Percent growth inhibition of A-549 human lung adenocarcinoma at 10e-7 M compound concentration in standard MTT assay
P388 [3] = assay: Percent growth inhibition of P388 mouse leukemia at 10e-6 M compound concentration in standard MTT assay
P388 [4] = assay: Percent growth inhibition of P388 mouse leukemia at 10e-7 M compound concentration in standard MTT assay
P388 [5] = assay: Percent growth inhibition of P388 mouse leukemia at 10e-8 M compound concentration in standard MTT assay
A549 [6] = assay: Percent growth inhibition of A-549 human lung adenocarcinoma at 10e-8 M compound concentration in standard MTT assay

Row | SMILES | inhibition at 1 µM (A549 [1]) | inhibition at 0.1 µM (A549 [2]) | inhibition at 1 µM (P388 [3]) | inhibition at 0.1 µM (P388 [4]) | inhibition at 0.01 µM (P388 [5]) | inhibition at 0.01 µM (A549 [6])
1 | CC(=O)OC[C@@H](C)[C@@]1(O)[C@H](OC2OCC(O)C(OC3OCC(O)C(O)C3OC(C)c3ccccc3)C2OC(C)=O)CC2C3CC=C4C[C@@H](OC(C)=O)CC[C@]4(C)C3CC[C@@]21C (stereo not given in full) | 6.2% | 0.8% | 20.4% | 15.5% | 17.9% | –
2 | CC(=O)OC1C(O[C@@H]2CC3C4CC=C5C[C@@H](O)CC[C@]5(C)C4CC[C@]3(C)[C@@]2(O)[C@H](C)C(=O)CCC(C)C)OCC(O)C1OC1OCC(O)C(O)C1OC(C)c1ccccc1 (stereo not given in full) | 53.8% | 29.5% | 66.7% | 35.4% | 15.5% | –
3 | CC(=O)OC1C(O[C@H]2CC[C@@]3(C)C(=CCC4C3CC[C@@]3(C)C4C[C@@H](OC4OCC(O)C(OC5OCC(O)C(O)C5OC(C)c5ccccc5)C4OC(C)=O)[C@]3(O)[C@H](C)C(=O)CCC(C)C)C2)OCC(O)C1OC1OCC(O)C(O)C1OC(C)c1ccccc1 (stereo not given in full) | 80.9% | 6.7% | 90.7% | 52% | – | 0.7%
